Source: patent US20050027003A1, “Methods of therapeutic treatment using retinoids with reduced side effects” (Allergan, Inc., priority 2003, published 2005)

Tests used:
AP1 = AP1 antagonism
patients with psoriasis = assay: Example 2: Phase 3 studies of oral tazarotene for psoriasis, adverse events (Table 1); assay type: in vivo, human; conditions: Taz 4.5 mg
Procedure: A series of Phase 3 studies are conducted on orally administered tazarotene for the treatment of psoriasis. Adverse events (side effects) are monitored. In addition, published data for acitretin's side effects are also considered.

[1] = test system: patients with moderate to very severe plaque psoriasis; assay: Example 4: open-label extension study of oral tazarotene in plaque psoriasis; assay type: in vivo, human; conditions: 4.5 mg once daily
Procedure: Two multicenter, double-blind, placebo-controlled studies ware conducted to evaluate the efficacy and safety of oral tazarotene (4.5 mg once daily) in patients with moderate to very severe plaque psoriasis. […] Efficacy evaluations include overall lesional assessment (OLA), percent body surface area involvement, global response to treatment, plaque elevation, scaling, and erythema. OLA is graded on a 6-point scale (0=none, 1=minimal, 2=mild, 3=moderate, 4=severe, 5=very severe).

[2] = test system: patients having nodulocystic acne; assay: Example 5: two placebo-controlled dose-ranging safety studies in nodulocystic acne; assay type: in vivo, human; conditions: for depression, patients: placebo 2%; for emotional lability, patients: placebo 4%
Procedure: Two placebo-controlled dose-ranging studies are conducted to evaluate the safety of oral tazarotene in patients having nodulocystic acne. In the first study, patients receive orally administered tazarotene at daily doses of 0.4 mg to 2.8 mg in 96 (71+25) patients (12 weeks treatment plus 12 weeks post-treatment). In the second study, daily doses of 0.75 mg to 6 mg tazarotene are administered to 181 patients (24 weeks treatment plus 12 weeks post-treatment).

patients with acne = assay: Example 6: studies of oral tazarotene for acne, adverse events (Table 2); assay type: in vivo, human; conditions: combined data from Studies 1 and 2 (N = 223)
Procedure: Studies are conducted on orally administered tazarotene for the treatment of acne. Adverse events (side effects) are monitored.

[3] = Example 8: PK and PD interactions of oral tazarotene and oral contraceptives; assay type: in vivo, human; conditions: up to 6 mg once daily
Procedure: It is the objective of this study to determine if there are pharmacokinetic (PK) and pharmacodynamic (PD) interactions between tazarotene and commonly prescribed oral contraceptives (OCs) when coadministered together.
Three separate clinical studies are conducted to evaluate the PK and PD interactions of oral tazarotene and OCs in healthy volunteers. Two studies evaluate daily doses of norethindrone (NE)/ethinyl estradiol (EE) with daily doses of tazarotene 1.1 mg (N=27) and 6 mg (N=29). The third study assesses the daily doses of norgestimate (NGM)/EE with daily doses of tazarotene 6 mg (N=26). OCs are administered for three consecutive menstrual cycles. Daily doses of tazarotene are started during the 2nd cycle and continued through the end of the studies. PK parameters for EE, NE, and NGM (AUC0-24 and Cmax) are determined before tazarotene dosing and after tazarotene dosing on day 6 of the 2nd and 3rd cycles. Serum concentrations of luteinizing hormone (LH) and follicle-stimulating hormone (FSH)-markers of contraceptive efficacy are also evaluated before tazarotene dosing and after tazarotene dosing on days 2, 4, and 6 of the 2nd and 3rd cycles. Serum progesterone levels are assessed on days 18 and 20 of the 2nd and 3rd cycles. […]

[4] = test system: patients with moderate to very severe plaque psoriasis; assay: Example 4: open-label extension study of oral tazarotene in plaque psoriasis; assay type: in vivo, human; conditions: 4.5 mg once daily, 12 weeks, across both groups
[5] = Study 3, treated with Tazarotene for 3 months (N = 220)
[6] = Study 3, treated with Tazarotene for 6 months (N = 92)
[7] = combined data from Studies 1 and 2 (N = 348)

- changes in liver function test values or cholesterol levels [1]: no clinically significant changes
- effect on PK or efficacy of NE/EE and NGM/EE oral contraceptives [3]: does not affect
Compound: CCOC(=O)c1ccc(C#Cc2ccc3c(c2)C(C)(C)CCS3)nc1 [tazarotene]
- AP1 antagonism (AP1): potent
- Adverse event: Alopecia (patients with psoriasis; [5]): 1 (0.5) number (%) of patients
- Adverse event: Arthralgia (patients with psoriasis; [5]): 28 (12.7) number (%) of patients
- Adverse event: Atrophy of skin (patients with psoriasis; [5]): 0 (0.0) number (%) of patients
- Adverse event: Back pain (patients with psoriasis; [5]): 7 (3.2) number (%) of patients
- Adverse event: Cheilitis (patients with psoriasis; [5]): 149 (67.7) number (%) of patients
- Adverse event: Dry Skin (patients with psoriasis; [5]): 47 (21.4) number (%) of patients
- Adverse event: Dry mouth/Oral dryness (patients with psoriasis; [5]): 11 (5.0) number (%) of patients
- Adverse event: Epistaxis (patients with psoriasis; [5]): 1 (0.5) number (%) of patients
- Adverse event: Erythematous rash/Erythema (patients with psoriasis; [5]): 0 (0.0) number (%) of patients
- Adverse event: Hyperesthesia (patients with psoriasis; [5]): 0 (0.0) number (%) of patients
- Adverse event: Nail Disorder (patients with psoriasis; [5]): 1 (0.5) number (%) of patients
- Adverse event: Paresthesia (patients with psoriasis; [5]): 3 (1.4) number (%) of patients
- Adverse event: Paronychia/Nail disorder (patients with psoriasis; [5]): 1 (0.5) number (%) of patients
- Adverse event: Pruritus (patients with psoriasis; [5]): 11 (5.0) number (%) of patients
- Adverse event: Rhinitis (patients with psoriasis; [5]): 0 (0.0) number (%) of patients
- Adverse event: Rigors/Chills (patients with psoriasis; [5]): 1 (0.5) number (%) of patients
- Adverse event: Skin peeling/Desquamation (patients with psoriasis; [5]): 3 (1.4) number (%) of patients
- Adverse event: Sticky skin/Skin disorder (patients with psoriasis; [5]): 0 (0.0) number (%) of patients
- Adverse event: Xerophthalmia/Eye disorder (patients with psoriasis; [5]): 3 (1.4) number (%) of patients
- Adverse event: Alopecia (patients with psoriasis; [6]): 5 (5.4) number (%) of patients
- Adverse event: Arthralgia (patients with psoriasis; [6]): 30 (32.6) number (%) of patients
- Adverse event: Atrophy of skin (patients with psoriasis; [6]): 0 (0.0) number (%) of patients
- Adverse event: Back pain (patients with psoriasis; [6]): 10 (10.9) number (%) of patients
- Adverse event: Cheilitis (patients with psoriasis; [6]): 65 (70.7) number (%) of patients
- Adverse event: Dry Skin (patients with psoriasis; [6]): 24 (26.1) number (%) of patients
- Adverse event: Dry mouth/Oral dryness (patients with psoriasis; [6]): 2 (2.2) number (%) of patients
- Adverse event: Epistaxis (patients with psoriasis; [6]): 0 (0.0) number (%) of patients
- Adverse event: Erythematous rash/Erythema (patients with psoriasis; [6]): 0 (0.0) number (%) of patients
- Adverse event: Hyperesthesia (patients with psoriasis; [6]): 0 (0.0) number (%) of patients
- Adverse event: Nail Disorder (patients with psoriasis; [6]): 1 (1.1) number (%) of patients
- Adverse event: Paresthesia (patients with psoriasis; [6]): 1 (1.1) number (%) of patients
- Adverse event: Paronychia/Nail disorder (patients with psoriasis; [6]): 1 (1.1) number (%) of patients
- Adverse event: Pruritus (patients with psoriasis; [6]): 3 (3.3) number (%) of patients
- Adverse event: Rhinitis (patients with psoriasis; [6]): 0 (0.0) number (%) of patients
- Adverse event: Rigors/Chills (patients with psoriasis; [6]): 1 (1.1) number (%) of patients
- Adverse event: Skin peeling/Desquamation (patients with psoriasis; [6]): 1 (1.1) number (%) of patients
- Adverse event: Sticky skin/Skin disorder (patients with psoriasis; [6]): 0 (0.0) number (%) of patients
- Adverse event: Xerophthalmia/Eye disorder (patients with psoriasis; [6]): 1 (1.1) number (%) of patients
- Adverse event: Alopecia (patients with psoriasis; [7]): 1 (0.3) number (%) of patients
- Adverse event: Arthralgia (patients with psoriasis; [7]): 60 (17.2) number (%) of patients
- Adverse event: Atrophy of skin (patients with psoriasis; [7]): 0 (0.0) number (%) of patients
- Adverse event: Back pain (patients with psoriasis; [7]): 16 (4.6) number (%) of patients
- Adverse event: Cheilitis (patients with psoriasis; [7]): 228 (65.5) number (%) of patients
- Adverse event: Dry Skin (patients with psoriasis; [7]): 82 (23.6) number (%) of patients
- Adverse event: Dry mouth/Oral dryness (patients with psoriasis; [7]): 11 (3.2) number (%) of patients
- Adverse event: Epistaxis (patients with psoriasis; [7]): 2 (0.6) number (%) of patients
- Adverse event: Erythematous rash/Erythema (patients with psoriasis; [7]): 2 (0.6) number (%) of patients
- Adverse event: Hyperesthesia (patients with psoriasis; [7]): 0 (0.0) number (%) of patients
- Adverse event: Nail Disorder (patients with psoriasis; [7]): 2 (0.6) number (%) of patients
- Adverse event: Paresthesia (patients with psoriasis; [7]): 7 (2.0) number (%) of patients
- Adverse event: Paronychia/Nail disorder (patients with psoriasis; [7]): 2 (0.6) number (%) of patients
- Adverse event: Pruritus (patients with psoriasis; [7]): 21 (6.0) number (%) of patients
- Adverse event: Rhinitis (patients with psoriasis; [7]): 8 (2.3) number (%) of patients
- Adverse event: Rigors/Chills (patients with psoriasis; [7]): 9 (2.6) number (%) of patients
- Adverse event: Skin peeling/Desquamation (patients with psoriasis; [7]): 3 (0.9) number (%) of patients
- Adverse event: Sticky skin/Skin disorder (patients with psoriasis; [7]): 1 (0.3) number (%) of patients
- Adverse event: Xerophthalmia/Eye disorder (patients with psoriasis; [7]): 8 (2.3) number (%) of patients
- serious adverse events considered related to the study treatment [1]: no serious adverse events
- incidence of arthralgia ([1]; 12 weeks, across both groups): 20%
- incidence of asthenia ([1]; 12 weeks, across both groups): 6%
- incidence of back pain ([1]; 12 weeks, across both groups): 11%
- incidence of cheilitis ([1]; 12 weeks, across both groups): 70%
- incidence of hypertriglyceridemia ([1]; 12 weeks, across both groups): 6%
- incidence of myalgia ([1]; 12 weeks, across both groups): 15%
- changes in urinalysis, chemistry, or hematology measures (incl. liver function tests, triglycerides, total cholesterol, HDL cholesterol) ([2]; 0.4 mg to 6 mg daily): no consistent dose-related clinically significant changes
- ligament calcification, osteophyte formation, changes in serum bone alkaline phosphatase, serum amino terminal telopeptides, bone density ([2]; 0.4 mg to 6 mg daily): not associated with any clinically significant
- depression, patients ([2]; 3 mg group (2 mild, 1 severe)): 8%
- emotional lability, patients ([2]; 3 mg group): 3%
- depression, patients ([2]; 6 mg group): none
- emotional lability, patients ([2]; 6 mg group): 14%
- dry skin, severe ([2]; all groups): No patient
- Adverse event: Cheilitis (patients with acne): 134 (60.1) number (%) of patients
- Adverse event: Conjunctivitis (patients with acne): 0 (0.0) number (%) of patients
- Adverse event: Desquamation central face/Desquamation (patients with acne): 1 (0.4) number (%) of patients
- Adverse event: Dry Skin (patients with acne): 79 (35.4) number (%) of patients
- Adverse event: Dry nose (patients with acne): 7 (3.1) number (%) of patients
- Adverse event: Epistaxis (patients with acne): 6 (2.7) number (%) of patients
- Adverse event: Fingertip peeling/Desquamation (patients with acne): 1 (0.4) number (%) of patients
- Adverse event: Headache (patients with acne): 26 (11.7) number (%) of patients
- Adverse event: Irritation of eyes (patients with acne): 0 (0.0) number (%) of patients
- Adverse event: Joint pain/Arthralgia (patients with acne): 18 (8.1) number (%) of patients
- Adverse event: Peeling/Desquamation (patients with acne): 1 (0.4) number (%) of patients
- Adverse event: Pruritus (patients with acne): 10 (4.5) number (%) of patients
- Adverse event: Rash-dermatitis/Rash (patients with acne): 7 (3.1) number (%) of patients
- Adverse event: Red Scaly face/Desquamation (patients with acne): 1 (0.4) number (%) of patients
- Adverse event: Skin fragility/Skin disorder (patients with acne): 1 (0.4) number (%) of patients
- incidence of dry skin [4]: 25%
- incidence of headache [4]: 11%
- incidence of infection [4]: 10%
